Reference: ChEMBL document CHEMBL5038667, “Discovery of an Amino Acid-Modified Near-Infrared Aza-BODIPY Photosensitizer as an Immune Initiator for Potent Photodynamic Therapy in Melanoma” (J Med Chem, 2022)
pIC50: −log10 of the molar value. Calls of active or inactive are those of the source. No cut-off for these calls is given here.

Experiments:
[1] = Biodistribution in whole body of C57BL/6 mouse harboring B16-F10 cells at 2 mg/kg, iv measured after 12 hrs by flourescence imaging assay; assay type: ADME, organism-based; settings: in vivo
B16-F10 [2] = assay: Dark toxicity against mouse B16-F10 cells assessed as reduction in cell viability incubated for 16 hrs by CCK-8 assay; assay type: cell-based; settings: B16-F10, 16 h
[3] = Phototoxicity against mouse B16-F10 cells assessed as reduction in cell viability incubated for 16 hrs followed by irradiated with 54 J/cm^2 of light dose and further incubated for 24 hrs by CCK-8 assay; assay type: toxicity, cell-based; settings: B16-F10, light or radiation study
[4] = Phototoxicity against human A-375 cells assessed as reduction in cell viability incubated for 16 hrs followed by irradiated with 54 J/cm^2 of light dose and further incubated for 24 hrs by CCK-8 assay; assay type: toxicity, cell-based; settings: A-375, light or radiation study
HeLa = assay: Dark toxicity against human HeLa cells assessed as reduction in cell viability incubated for 16 hrs by CCK-8 assay; assay type: functional, cell-based
[5] = Drug localisation in mitochondria of mouse B16-F10 cells at 5 uM incubated for 16 hrs by Mito Tracker Green FM based confocal laser scanning microscopy analysis; assay type: ADME; settings: b16-f10, 16 h
[6] = Drug localisation in mitochondria of human A-375 cells at 5 uM incubated for 16 hrs by Mito Tracker Green FM based confocal laser scanning microscopy analysis; assay type: ADME; settings: a-375, 16 h
[7] = Drug localisation in lysosome of human A-375 cells at 5 uM incubated for 16 hrs by Lyso Tracker Green based confocal laser scanning microscopy analysis; assay type: ADME, subcellular; settings: a-375, 16 h
[8] = Drug localisation in endoplasmic reticulum of mouse B16-F10 cells at 5 uM incubated for 16 hrs by ER Tracker Green based confocal laser scanning microscopy analysis; assay type: ADME, subcellular; settings: b16-f10, 16 h
[9] = Drug localisation in endoplasmic reticulum of human A-375 cells at 5 uM incubated for 16 hrs by ER Tracker Green based confocal laser scanning microscopy analysis; assay type: ADME, subcellular; settings: a-375, 16 h
B16-F10 [10] = assay: Induction of ROS generation in mouse B16-F10 cells assessed as cells with high intracellular ROS levels at 20 nM incubated for 16 hrs followed by irradiated with 54 J/cm^2 of light dose by H2DCFDA fluorescent probe based flow cytometry method (reference value: 1.96 %); assay type: functional
B16-F10 [11] = assay: Induction of ROS generation in mouse B16-F10 cells assessed as cells with high intracellular ROS levels at 100 nM incubated for 16 hrs followed by irradiated with 54 J/cm^2 of light dose by H2DCFDA fluorescent probe based flow cytometry method (reference value: 1.96 %); assay type: functional
A-375 [12] = assay: Induction of ROS generation in human A-375 cells assessed as cells with high intracellular ROS levels at 10 nM incubated for 16 hrs followed by irradiated with 54 J/cm2 light dose by H2DCFDA fluorescent probe based flow cytometry method (reference value: 2.09 %); assay type: functional
B16-F10 [13] = assay: Photodynamic therapy in mouse B16-F10 cells implanted in C57BL/6 mouse model assessed as increase in infiltration of CD8+ T cells by APC/FITC/PE staining based flow cytometric analysis (reference value: 3.68 %); assay type: functional
B16-F10 [14] = assay: Induction of apoptosis in mouse B16-F10 cells assessed as early apoptotic cells at 50 nM incubated for 16 hrs followed by irradiated with 54 J/cm^2 light dose by Annexin V-FITC/PI based flow cytometric analysis (reference value: 6.48 %); assay type: functional
B16-F10 [15] = assay: Induction of apoptosis in mouse B16-F10 cells assessed as necrotic cells at 10 nM incubated for 16 hrs followed by irradiated with 54 J/cm^2 light dose by Annexin V-FITC/PI based flow cytometric analysis (reference value: 3.75 %); assay type: functional
B16-F10 [16] = assay: Induction of apoptosis in mouse B16-F10 cells assessed as necrotic cells at 50 nM incubated for 16 hrs followed by irradiated with 54 J/cm^2 light dose by Annexin V-FITC/PI based flow cytometric analysis (reference value: 3.75 %); assay type: functional
B16-F10 [17] = assay: Induction of apoptosis in mouse B16-F10 cells assessed as necrotic cells at 250 nM incubated for 16 hrs followed by irradiated with 54 J/cm^2 light dose by Annexin V-FITC/PI based flow cytometric analysis (reference value: 3.75 %); assay type: functional
A-375 [18] = assay: Induction of apoptosis in human A-375 cells assessed as total apoptotic cells at 10 nM incubated for 16 hrs followed by irradiated with 54 J/cm^2 light dose by Annexin V-FITC/PI based flow cytometric analysis (reference value: 4.79 %); assay type: functional
A-375 [19] = assay: Induction of apoptosis in human A-375 cells assessed as total apoptotic cells at 50 nM incubated for 16 hrs followed by irradiated with 54 J/cm^2 light dose by Annexin V-FITC/PI based flow cytometric analysis (reference value: 4.79 %); assay type: functional
A-375 [20] = assay: Induction of apoptosis in human A-375 cells assessed as total apoptotic cells at 250 nM incubated for 16 hrs followed by irradiated with 54 J/cm^2 light dose by Annexin V-FITC/PI based flow cytometric analysis (reference value: 4.79 %); assay type: functional
B16-F10 [21] = assay: Antitumor immunity against mouse B16-F10 cells assessed as release of HMGB1 at 10 nM incubated for 16 hrs followed by irradiated with 54 J/cm^2 light dose and further incubated for 6 hrs by Alexa Fluor 488/Hoechst 33342 staining based confocal laser scanning microscopy; assay type: functional, cell-based
B16-F10 [22] = assay: Antitumor immunity against mouse B16-F10 cells assessed as surface translocation of CRT at 10 nM incubated for 16 hrs followed by irradiated with 54 J/cm^2 light dose and further incubated for 6 hrs by Alexa Fluor 488/Hoechst 33342 staining based confocal laser scanning microscopy; assay type: functional, cell-based
B16-F10 [23] = assay: Antitumor immunity against mouse B16-F10 cells assessed as release of HMGB1 at 50 nM incubated for 16 hrs followed by irradiated with 54 J/cm^2 light dose and further incubated for 6 hrs by Alexa Fluor 488/Hoechst 33342 staining based confocal laser scanning microscopy; assay type: functional, cell-based
B16-F10 [24] = assay: Antitumor immunity against mouse B16-F10 cells assessed as surface translocation of CRT at 250 nM incubated for 16 hrs followed by irradiated with 54 J/cm^2 light dose and further incubated for 6 hrs by Alexa Fluor 488/Hoechst 33342 staining based confocal laser scanning microscopy; assay type: functional, cell-based
[25] = Biodistribution in liver of C57BL/6 mouse harboring mouse B16-F10 cells at 2 mg/kg, iv measured after 12 hrs by flourescence imaging assay; assay type: ADME, organism-based; settings: in vivo
[26] = Biodistribution in spleen of C57BL/6 mouse harboring mouse B16-F10 cells at 2 mg/kg, iv measured after 12 hrs by flourescence imaging assay; assay type: ADME, organism-based; settings: in vivo
[27] = Biodistribution in kidneys of C57BL/6 mouse harboring mouse B16-F10 cells at 2 mg/kg, iv measured after 12 hrs by flourescence imaging assay; assay type: ADME, organism-based, Kidney; settings: in vivo
B16-F10 [28] = assay: Biodistribution in tumor of C57BL/6 mouse harboring mouse B16-F10 cells at 2 mg/kg, iv measured after 12 hrs by flourescence imaging assay; assay type: ADME, organism-based; settings: in vivo
[29] = Toxicity in C57BL/6 mouse harboring mouse B16-F10 cells assessed as change in body weight at 2 mg/kg, iv irradiated with 60 J/cm^2 laser light measured upto 14 days; assay type: organism-based; settings: in vivo, 336 h, time <=14 day

Drug uptake [1]: Active
Drug uptake [5]: Active
Drug uptake [6]: Active
Drug uptake [7]: Active
Drug uptake [8]: Active
Drug uptake [9]: Active
Drug uptake [25]: Active
Drug uptake [26]: Active
Drug uptake [27]: Active
Drug uptake (B16-F10 [28]): Active
Compound: COc1ccc(C2=[N+]3C(=Nc4c(-c5ccccc5)c5c(n4[B-]3(F)F)-c3ccc(OCC(=O)N[C@@H](CC(=O)O)C(=O)O)cc3CC5)C(c3ccccc3)=C2I)cc1
pIC50 (B16-F10 [2]): < 3.60
pIC50 [3]: 7.19
pIC50 [4]: 7.09
pIC50 (HeLa): < 3.60
Activity (B16-F10 [10]): 6.77%
Activity (B16-F10 [11]): 70.29%
Activity (A-375 [12]): 2.48%
Activity (B16-F10 [13]): 7.98%
Activity (B16-F10 [14]): 40.92%
Activity (B16-F10 [15]): 0.88%
Activity (B16-F10 [16]): 3.51%
Activity (B16-F10 [17]): 0.29%
Activity (A-375 [18]): 6.68%
Activity (A-375 [19]): 66.46%
Activity (A-375 [20]): 93.81%
Activity (B16-F10 [21]): inactive
Activity (B16-F10 [22]): inactive
Activity (B16-F10 [23]): Active
Activity (B16-F10 [24]): inactive
Activity [29]: Non-Toxic
